Test results published in PubChem BioAssay (NCI).
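Where inhibition never reached the appropriate level, the endpoint shown equals the highest concentration tested. Otherwise, values were interpolated linearly from a five-concentration, 48-hour dose response in 96-well plates. At the TGI there is no net growth.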

Experiments:
Assay in all cases: NCI tumour cell line growth inhibition, 48 h
786-0 renal = test system: 786-0 renal
A498 renal = test system: A498 renal
A549 NSCLC = test system: A549 NSCLC
ACHN renal = test system: ACHN renal
CAKI-1 renal = test system: CAKI-1 renal
CCRF-CEM leukemia = test system: CCRF-CEM leukemia
COLO 205 colon = test system: COLO 205 colon
DLD-1 colon = test system: DLD-1 colon
DMS 114 small cell lung = test system: DMS 114 small cell lung
DMS 273 small cell lung = test system: DMS 273 small cell lung
EKVX NSCLC = test system: EKVX NSCLC
HCC-2998 colon = test system: HCC-2998 colon
HCT-116 colon = test system: HCT-116 colon
HCT-15 colon = test system: HCT-15 colon
HL-60(TB) leukemia = test system: HL-60(TB) leukemia
HOP-18 NSCLC = test system: HOP-18 NSCLC
HOP-62 NSCLC = test system: HOP-62 NSCLC
HOP-92 NSCLC = test system: HOP-92 NSCLC
HT29 colon = test system: HT29 colon
IGROV1 ovarian = test system: IGROV1 ovarian
K-562 leukemia = test system: K-562 leukemia
KM12 colon = test system: KM12 colon
KM20L2 colon = test system: KM20L2 colon
LOX IMVI melanoma = test system: LOX IMVI melanoma
LXFL 529 NSCLC = test system: LXFL 529 NSCLC
M14 melanoma = test system: M14 melanoma
MALME-3M melanoma = test system: MALME-3M melanoma
MOLT-4 leukemia = test system: MOLT-4 leukemia
NCI-H226 lung = test system: NCI-H226 lung
NCI-H23 lung = test system: NCI-H23 lung
NCI-H460 lung = test system: NCI-H460 lung
NCI-H522 lung = test system: NCI-H522 lung
OVCAR-3 ovarian = test system: OVCAR-3 ovarian
OVCAR-4 ovarian = test system: OVCAR-4 ovarian
OVCAR-5 ovarian = test system: OVCAR-5 ovarian
OVCAR-8 ovarian = test system: OVCAR-8 ovarian
RPMI-8226 leukemia = test system: RPMI-8226 leukemia
RXF 393 renal = test system: RXF 393 renal
RXF-631 renal = test system: RXF-631 renal
SF-268 CNS = test system: SF-268 CNS
SF-295 CNS = test system: SF-295 CNS
SF-539 CNS = test system: SF-539 CNS
SK-MEL-2 melanoma = test system: SK-MEL-2 melanoma
SK-MEL-28 melanoma = test system: SK-MEL-28 melanoma
SK-MEL-5 melanoma = test system: SK-MEL-5 melanoma
SK-OV-3 ovarian = test system: SK-OV-3 ovarian
SN12C renal = test system: SN12C renal
SNB-19 CNS = test system: SNB-19 CNS
SNB-75 CNS = test system: SNB-75 CNS
SNB-78 CNS = test system: SNB-78 CNS
SR leukemia = test system: SR leukemia
SW-620 colon = test system: SW-620 colon
TK-10 renal = test system: TK-10 renal
U251 CNS = test system: U251 CNS
UACC-257 melanoma = test system: UACC-257 melanoma
UACC-62 melanoma = test system: UACC-62 melanoma
UO-31 renal = test system: UO-31 renal
XF 498 CNS = test system: XF 498 CNS
BT-549 breast = test system: BT-549 breast
DU-145 prostate = test system: DU-145 prostate
HS 578T breast = test system: HS 578T breast
M19-MEL melanoma = test system: M19-MEL melanoma
MCF7 breast = test system: MCF7 breast
MDA-MB-231 breast = test system: MDA-MB-231 breast
MDA-MB-435 = test system: MDA-MB-435
MDA-N = test system: MDA-N
NCI/ADR-RES ovarian = test system: NCI/ADR-RES ovarian
PC-3 prostate = test system: PC-3 prostate
T-47D breast = test system: T-47D breast

O=C1C=CC(=C(c2ccc(O)cc2)c2ccc(O)cc2)C=C1
TGI (786-0 renal): 26.5 µM | TGI (A498 renal): 32 µM | TGI (A549 NSCLC): 53.3 µM | TGI (ACHN renal): 28.7 µM | TGI (CAKI-1 renal): 32.7 µM | TGI (CCRF-CEM leukemia): 12.2 µM | TGI (COLO 205 colon): 32.4 µM | TGI (DLD-1 colon): 23.4 µM | TGI (DMS 114 small cell lung): 7.54 µM | TGI (DMS 273 small cell lung): 19.9 µM | TGI (EKVX NSCLC): 28.6 µM | TGI (HCC-2998 colon): 27.6 µM | TGI (HCT-116 colon): 22.7 µM | TGI (HCT-15 colon): 28.6 µM | TGI (HL-60(TB) leukemia): 13.4 µM | TGI (HOP-18 NSCLC): 30.3 µM | TGI (HOP-62 NSCLC): 35.2 µM | TGI (HOP-92 NSCLC): 9.27 µM | TGI (HT29 colon): 38.6 µM | TGI (IGROV1 ovarian): 28 µM | TGI (K-562 leukemia): 14.2 µM | TGI (KM12 colon): 26.1 µM | TGI (KM20L2 colon): 30.7 µM | TGI (LOX IMVI melanoma): 22.9 µM | TGI (LXFL 529 NSCLC): 10.8 µM | TGI (M14 melanoma): 26.4 µM | TGI (MALME-3M melanoma): 24.9 µM | TGI (MOLT-4 leukemia): 29.7 µM | TGI (NCI-H226 lung): 37.5 µM | TGI (NCI-H23 lung): 21.2 µM | TGI (NCI-H460 lung): 30.5 µM | TGI (NCI-H522 lung): 21.8 µM | TGI (OVCAR-3 ovarian): 19.9 µM | TGI (OVCAR-4 ovarian): 27.6 µM | TGI (OVCAR-5 ovarian): 32.3 µM | TGI (OVCAR-8 ovarian): 25.2 µM | TGI (RPMI-8226 leukemia): 21 µM | TGI (RXF 393 renal): 16.9 µM | TGI (RXF-631 renal): 29.6 µM | TGI (SF-268 CNS): 29.7 µM | TGI (SF-295 CNS): 25.1 µM | TGI (SF-539 CNS): 23.6 µM | TGI (SK-MEL-2 melanoma): 17.7 µM | TGI (SK-MEL-28 melanoma): 25.3 µM | TGI (SK-MEL-5 melanoma): 19.8 µM | TGI (SK-OV-3 ovarian): 32.3 µM | TGI (SN12C renal): 21 µM | TGI (SNB-19 CNS): 29.3 µM | TGI (SNB-75 CNS): 10.2 µM | TGI (SNB-78 CNS): 17.4 µM | TGI (SR leukemia): 7.37 µM | TGI (SW-620 colon): 25.5 µM | TGI (TK-10 renal): 33.4 µM | TGI (U251 CNS): 22.6 µM | TGI (UACC-257 melanoma): 21.7 µM | TGI (UACC-62 melanoma): 14.5 µM | TGI (UO-31 renal): 31.1 µM | TGI (XF 498 CNS): 24.4 µM

S=c1[nH]nc(Cc2ccccc2)c(=S)[nH]1
TGI (786-0 renal): > 100 µM | TGI (A498 renal): > 81.8 µM | TGI (A549 NSCLC): > 100 µM | TGI (BT-549 breast): 96.9 µM | TGI (CAKI-1 renal): > 100 µM | TGI (CCRF-CEM leukemia): > 100 µM | TGI (COLO 205 colon): > 100 µM | TGI (DLD-1 colon): > 100 µM | TGI (DMS 273 small cell lung): > 100 µM | TGI (DU-145 prostate): > 100 µM | TGI (EKVX NSCLC): > 31.6 µM | TGI (HCC-2998 colon): > 71.8 µM | TGI (HCT-116 colon): > 100 µM | TGI (HCT-15 colon): > 100 µM | TGI (HL-60(TB) leukemia): > 100 µM | TGI (HOP-18 NSCLC): > 100 µM | TGI (HOP-62 NSCLC): > 100 µM | TGI (HOP-92 NSCLC): > 73.1 µM | TGI (HS 578T breast): > 100 µM | TGI (HT29 colon): > 100 µM | TGI (IGROV1 ovarian): > 100 µM | TGI (K-562 leukemia): > 100 µM | TGI (KM12 colon): > 100 µM | TGI (LOX IMVI melanoma): 99.3 µM | TGI (LXFL 529 NSCLC): > 100 µM | TGI (M14 melanoma): > 100 µM | TGI (M19-MEL melanoma): > 100 µM | TGI (MALME-3M melanoma): > 100 µM | TGI (MCF7 breast): > 100 µM | TGI (MDA-MB-231 breast): > 100 µM | TGI (MDA-MB-435): > 100 µM | TGI (MDA-N): > 100 µM | TGI (MOLT-4 leukemia): > 100 µM | TGI (NCI-H226 lung): > 100 µM | TGI (NCI-H23 lung): > 100 µM | TGI (NCI-H460 lung): > 93.7 µM | TGI (NCI-H522 lung): > 100 µM | TGI (NCI/ADR-RES ovarian): > 100 µM | TGI (OVCAR-3 ovarian): > 100 µM | TGI (OVCAR-4 ovarian): > 100 µM | TGI (OVCAR-5 ovarian): > 100 µM | TGI (OVCAR-8 ovarian): > 100 µM | TGI (PC-3 prostate): 88.2 µM | TGI (RPMI-8226 leukemia): > 100 µM | TGI (RXF 393 renal): > 100 µM | TGI (RXF-631 renal): > 100 µM | TGI (SF-268 CNS): > 21.3 µM | TGI (SF-295 CNS): > 100 µM | TGI (SF-539 CNS): > 100 µM | TGI (SK-MEL-2 melanoma): > 76.9 µM | TGI (SK-MEL-28 melanoma): > 100 µM | TGI (SK-MEL-5 melanoma): > 82.2 µM | TGI (SK-OV-3 ovarian): > 100 µM | TGI (SN12C renal): > 100 µM | TGI (SNB-19 CNS): > 100 µM | TGI (SNB-75 CNS): 89.1 µM | TGI (SNB-78 CNS): > 100 µM | TGI (SR leukemia): > 100 µM | TGI (SW-620 colon): > 100 µM | TGI (T-47D breast): 75.4 µM | TGI (TK-10 renal): > 94.1 µM | TGI (U251 CNS): > 100 µM | TGI (UACC-257 melanoma): > 100 µM | TGI (UACC-62 melanoma): > 50.1 µM | TGI (UO-31 renal): > 100 µM | TGI (XF 498 CNS): > 100 µM

O=[N+]([O-])c1ccc(Cl)c(C2CC(c3cccc4ccccc34)=Nc3ccccc3S2)c1 (configuration not stated)
TGI (786-0 renal): 30.4 µM | TGI (A498 renal): > 78.9 µM | TGI (A549 NSCLC): > 100 µM | TGI (ACHN renal): > 100 µM | TGI (CAKI-1 renal): > 100 µM | TGI (CCRF-CEM leukemia): > 64.7 µM | TGI (COLO 205 colon): > 100 µM | TGI (DLD-1 colon): 28.1 µM | TGI (DMS 114 small cell lung): 84.5 µM | TGI (DMS 273 small cell lung): > 100 µM | TGI (EKVX NSCLC): > 100 µM | TGI (HCC-2998 colon): > 100 µM | TGI (HCT-116 colon): 38.7 µM | TGI (HCT-15 colon): > 100 µM | TGI (HL-60(TB) leukemia): 26.2 µM | TGI (HOP-18 NSCLC): > 100 µM | TGI (HOP-62 NSCLC): > 100 µM | TGI (HOP-92 NSCLC): 49.8 µM | TGI (HT29 colon): > 59.7 µM | TGI (IGROV1 ovarian): > 100 µM | TGI (K-562 leukemia): > 69.6 µM | TGI (KM12 colon): > 100 µM | TGI (KM20L2 colon): > 100 µM | TGI (LOX IMVI melanoma): 59.2 µM | TGI (LXFL 529 NSCLC): 88.9 µM | TGI (M14 melanoma): 63.4 µM | TGI (M19-MEL melanoma): > 66.1 µM | TGI (MALME-3M melanoma): > 100 µM | TGI (MOLT-4 leukemia): > 56.9 µM | TGI (NCI-H226 lung): > 67.1 µM | TGI (NCI-H23 lung): 20.8 µM | TGI (NCI-H460 lung): > 100 µM | TGI (NCI-H522 lung): 43.9 µM | TGI (OVCAR-3 ovarian): 51.2 µM | TGI (OVCAR-4 ovarian): > 100 µM | TGI (OVCAR-5 ovarian): > 100 µM | TGI (OVCAR-8 ovarian): 30.8 µM | TGI (RPMI-8226 leukemia): > 47.5 µM | TGI (RXF 393 renal): 21.7 µM | TGI (RXF-631 renal): > 100 µM | TGI (SF-268 CNS): > 92.1 µM | TGI (SF-295 CNS): > 94.1 µM | TGI (SF-539 CNS): 49.3 µM | TGI (SK-MEL-2 melanoma): 62.8 µM | TGI (SK-MEL-28 melanoma): > 84.2 µM | TGI (SK-MEL-5 melanoma): > 31.6 µM | TGI (SK-OV-3 ovarian): > 100 µM | TGI (SN12C renal): > 59.4 µM | TGI (SNB-19 CNS): > 100 µM | TGI (SNB-75 CNS): 60.5 µM | TGI (SNB-78 CNS): > 66.7 µM | TGI (SR leukemia): 68.9 µM | TGI (SW-620 colon): > 66.7 µM | TGI (TK-10 renal): > 100 µM | TGI (U251 CNS): 65.9 µM | TGI (UACC-257 melanoma): > 100 µM | TGI (UACC-62 melanoma): 59 µM | TGI (UO-31 renal): > 66.8 µM
